A short description of test [1]: Ag^+ transport into liposomes with encapsulated BCS. To be noted: after 100 s, silver gradient of 50 μM, 1:1000 transporter to lipid ratio, added from DMSO. On the procedure: Liposomes with BCS encapsulated were prepared as described above in the part entitled “II—C—1—Determination of the transport of Cu^+by the examples of calix[4]arenes” and measurements were performed as described in this part.
A Ag^+ solution was prepared by dissolving AgNO3 in a phosphate buffer at 3.05 mM concentration. After the first 30 seconds of the experiment, 50 μL of the Ag^+ solution was added to 3 mL of liposomes, resulting in a silver gradient of 50 μM. The fluorescence level was monitored for 600 seconds after the addition of the copper solution.
When a solution of DMSO with the calix[4]arene of the formula (2) was added to the liposomes (5 μL, to obtain a 1:1000 transport to lipid ratio) the decrease in fluorescence intensity of BCS was much faster (F/F0=0.55 after 100 s) compared to when DMSO without calix[4]arene of the formula (2) (5 μL) was added (F/F0=0.85 after 100 s).

For test [2], the system named is PC9 human lung cancer cell line. As to the kind of experiment: Inhibition of PC9 cell proliferation (cell count). Format: cell-based. The settings on record: 3 μM, until 72 hours. The protocol:
The inhibition of a PC9 human lung cancer cell line proliferation by the calix[4]arene of the formulation (2) was determined by exposure of said PC9 human lung cancer cell line to a concentration of 3 μM of the compound of the formula (2) until 72 hours. The absolute number of cells were counted in the treated and untreated conditions before treatment (N0) and after 72 hours (Nt).
The FIG. 2 is a graph showing: • the profile of the proliferation index Nt/N0 of the PC9 cells after exposure with the calix[4]arene of the formula (2) with respect to the time (i.e. the curve entitled “calix[4]arene (2)”), • the profile of the proliferation index Nt/N0 of the PC9 cells without any exposure with the calix[4]arene of the formula (2) with respect to the time (i.e. the curve entitled “untreated”).

In test [3] the test system is H322 lung carcinoma cell line. The test is described as follows: Inhibition of H322 cell proliferation (cell count). Format: cell-based. The settings on record: 3 μM, until 72 hours. On the procedure:
The inhibition of a H322 lung carcinoma cell line proliferation by the calix[4]arene of the formula (2) was determined by exposure of said H322 lung carcinoma cell line to a concentration of 3 μM of the calix[4]arene of the formula (2) until 72 hours. The absolute number of cells were counted in the treated and untreated conditions before treatment (N0) and after 72 hours (Nt).
The FIG. 3 is a graph showing: • the profile of the proliferation index Nt/N0 of the H322 cells after exposure with the calix[4]arene of the formula (2) with respect to the time (i.e. the curve entitled “calix[4]arene (2)”), • the profile of the proliferation index Nt/N0 of the H322 cells without any exposure with the calix[4]arene of the formula (2) with respect to the time (i.e. the curve entitled “untreated”).

Test [4] deals with H322 lung carcinoma cells. The test is described as follows: MTS cytotoxicity assay on H322. In kind it is cell-based. To be noted: NCI-H322; H322, 72 hours of treatment. On the technique in general: Tetrazolium dyes change colour on reduction, which living cells bring about.
Protocol: H322 lung carcinoma cells were seeded in 96-well plates together with the calix[4]arene of the formula (2). Cells were grown in RPMI-1640 supplemented with GlutaMAX™ (Gibco™) and fetal calf serum (FCS, 10%) and treated with a broad range of concentrations of the calix[4]arene of the formula (2). After 72 hours of treatment, the cytotoxicity was measured by means of the IC50 value, using the kit “CellTiter 96R AQuous One Solution Cell Proliferation Assay (MTS)” from Promega™. Following 30 minutes of incubation with the MTS reagent, the endpoint measurements were done in triplicate at 485 nm, using a fluorescence plate reader.
H322 lung carcinoma cells were seeded in 96-well plates together with the compound of the 2nd comparative example of the formula (XI). Cells were grown in RPMI-1640 supplemented with GlutaMAX™ (Gibco™) and fetal calf serum (FCS, 10%) and treated with a broad range of concentrations of the 2nd comparative example of the formula (XI). After 72 hours of treatment, the cytotoxicity was measured by means of the IC50 value, using the kit “CellTiter 96R AQuous One Solution Cell Proliferation Assay (MTS)” from Promega™. Following 30 minutes of incubation with the MTS reagent, the endpoint measurements were done in triplicate at 485 nm, using a fluorescence plate reader.
H322 lung carcinoma cells were seeded in 96-well plates together with the 1st comparative example of the formula (X). Cells were grown in RPMI-1640 supplemented with GlutaMAX™ (Gibco™) and fetal calf serum (FCS, 10%) and treated with a broad range of concentrations of the compound of the formula (X). After 72 hours of treatment, the cytotoxicity was measured by means of the IC50 value, using the kit “CellTiter 96R AQuous One Solution Cell Proliferation Assay (MTS)” from Promega™. Following 30 minutes of incubation with the MTS reagent, the endpoint measurements were done in triplicate at 485 nm, using a fluorescence plate reader.
H322 lung carcinoma cells were seeded in 96-well plates together with the tested calix[4]arenes. Cells were grown in RPMI-1640 supplemented with GlutaMAX™ (Gibco™) and fetal calf serum (FCS, 10%) and treated with a broad range of concentrations of the tested calix[4]arenes. After 72 hours of treatment, the cytotoxicity was measured by means of the IC50 value, using the kit “CellTiter 96R AQuous One Solution Cell Proliferation Assay (MTS)” from Promega™. Following 30 minutes of incubation with the MTS reagent, the endpoint measurements were done in triplicate at 485 nm, using a fluorescence plate reader.
Test [5] deals with A549 human lung cancer cells. As to the kind of experiment: MTS cytotoxicity assay on A549. Format: cell-based. To be noted: A549, 72 hours of treatment.
Protocol: A549 human lung cancer cells were seeded in 96-well plates together with the calix[4]arene of the formula (2). Cells were grown in RPMI-1640 supplemented with GlutaMAX™ (Gibco™) and fetal calf serum (FCS, 10%) and treated with a broad range of concentrations of the calix[4]arene of the formula (2). After 72 hours of treatment, the cytotoxicity was measured by means of the IC50 value, using the kit “CellTiter 96R AQuous One Solution Cell Proliferation Assay (MTS)” from Promega™. Following 30 minutes of incubation with the MTS reagent, the endpoint measurements were done in triplicate at 485 nm, using a fluorescence plate reader.
A549 human lung cancer cells were seeded in 96-well plates together with the compound of the 2nd comparative example of the formula (XI). Cells were grown in RPMI-1640 supplemented with GlutaMAX™ (Gibco™) and fetal calf serum (FCS, 10%) and treated with a broad range of concentrations of the 2nd comparative example of the formula (XI). After 72 hours of treatment, the cytotoxicity was measured by means of the IC50 value, using the kit “CellTiter 96R AQuous One Solution Cell Proliferation Assay (MTS)” from Promega™. Following 30 minutes of incubation with the MTS reagent, the endpoint measurements were done in triplicate at 485 nm, using a fluorescence plate reader. […]
The test system of test [6] is PC9 human lung cancer cells. The test is described as follows: MTS cytotoxicity assay on PC9. In kind it is cell-based. To be noted: PC9, 72 hours of treatment.
Protocol: PC9 human lung cancer cells were seeded in 96-well plates together with the calix[4]arene of the formula (2). Cells were grown in RPMI-1640 supplemented with GlutaMAX™ (Gibco™) and fetal calf serum (FCS, 10%) and treated with a broad range of concentrations of the calix[4]arene of the formula (2). After 72 hours of treatment, the cytotoxicity was measured by means of the IC50 value, using the kit “CellTiter 96R AQuous One Solution Cell Proliferation Assay (MTS)” from Promega™. Following 30 minutes of incubation with the MTS reagent, the endpoint measurements were done in triplicate at 485 nm, using a fluorescence plate reader.
PC9 human lung cancer cells were seeded in 96-well plates together with the 2nd comparative example of the formula (XI). Cells were grown in RPMI-1640 supplemented with GlutaMAX™ (Gibco™) and fetal calf serum (FCS, 10%) and treated with a broad range of concentrations of the compound of the 2nd comparative example of the formula (XI). After 72 hours of treatment, the cytotoxicity was measured by means of the IC50 value, using the kit “CellTiter 96R AQuous One Solution Cell Proliferation Assay (MTS)” from Promega™. Following 30 minutes of incubation with the MTS reagent, the endpoint measurements were done in triplicate at 485 nm, using a fluorescence plate reader. […]
The test system of test [7] is Escherichia coli. The test is described as follows: Minimal inhibitory concentration, bacterial growth in 96 well plate. In kind it is cell-based. The settings on record: E. coli, with 100 μM CuSO4. On the procedure: (§1) The efficiency of a compound of interest on a bacterial strain is evaluated by measuring its minimal inhibitory concentration (hereafter abbreviated “MIC”). MICs are measured by following the bacterial growth in a 96 wells plate exposed to a range of concentrations of the compound of interest.
(§2) A small amount of the frozen bacteria (stored at −80° C. in glycerol) was mixed in 25 mL of Lysogeny broth (i.e. a nutritionally rich medium used for the growth of bacteria which comprises 10 g of tryptone, 5 g of yeast extract, 10 g of NaCl, and 1 L of distilled water; with the pH adjusted to 7.0 with 1 N NaOH; and autoclaved for 25 min at 120° C.) in a falcon tube and then placed in an incubation chamber at 180 rpm and 37° C. After 16 to 24 hours, 25 mL of Lysogeny broth was added to the growth media and placed back in the incubation chamber for two hours. The absorption of the resulting solution was measured at 600 nm (hereafter abbreviated “OD600”) using Lysogeny broth as blank and then the solution was diluted to 0.1±0.01.
(§3) 96 Well plates were filled with 20 μL of 1 mM CuSO4 solution, then 160 μL of growth media was added. Finally, 20 μL of DMSO solutions containing a range of concentrations of the tested calix[4]arene of the formula (2) was added. […] For each condition three wells were used. The top and bottom rows were used as control, the top row only contained Lysogeny broth and the bottom one contained the growth media, DMSO and CuSO4. The plates were placed in the incubator for 16 to 24 hours. The absorbance of each well was measured at 600 nm with a multiplate reader (Fluostar from Optima).
(§4) The ratio between the average absorption value of three wells (OD) with the same conditions minus the average of the 12 negative controls (OD(negative)) and the average of the 12 positive control (OD(positive)) minus the negative control yielded the growth value which was subtracted from one and multiplied by a hundred to give the inhibition percentage (Equation 1).
(§5) The MIC50 or MIC90 is defined by the lowest concentration for which the inhibition value is at/over 50 or 90%. For a given experimental conditions three rows are used in a plate. The whole process was also repeated three times to obtain triplicates. MIC values were the determined by the average values obtained.

In test [8] the test system is Staphylococcus aureus. The description is as above. In kind it is cell-based. The settings on record: SA, with 100 μM CuSO4. On the procedure:
as §1, §2, §3, §4, §5

In test [9] the test system is methicillin resistant Staphylococcus aureus. Described as above. Format: cell-based. To be noted: MRSA, with 100 μM CuSO4. The protocol:
as §1, §2, §3, §4, §5

For test [10], the system named is vancomycin resistant enterococcus. Described as above. In kind it is cell-based. To be noted: VRE, with 100 μM CuSO4. On the procedure: as §1, §2, §3, §4, §5
Test [11] deals with Candida albicans yeast cells. As to the kind of experiment: Minimal inhibitory concentration, yeast growth in 96 well plate. The settings on record: in presence of 100 μM CuSO4, read-out: minimal inhibitory concentrations values. Format: cell-based. On the procedure: as §1, §3
Additionally, the same protocol was repeated with Candida albican yeast cells. Instead of Lysogeny broth, Yeast Extract-Peptone-Dextrose (Bacteriological peptone, 20 g/L; Glucose, 20 g/L; Yeast extract, 10 g/L) was used as growing medium. […]

The subject of test [12] is PC9 human lung cancer cells. The test is described as follows: MTS cytotoxicity assay, combination with CuCl2, PC9. To be noted: Homo sapiens, 72 h, read-out: percentage of cell viability.
Protocol: PC9 human lung cancer cells were seeded in 96-well plates together with the calix[4]arene of the formula (2) and CuCl2. Cells were grown in RPMI-1640 supplemented with GlutaMAX™ (Gibco™) and fetal calf serum (FCS, 10%) treated with a broad range of concentrations of the calix[4]arene of the formula (2) or/and CuCl2 from Merck. After 72 hours of treatment, the cytotoxicity was measured by means of the IC50 value, using the kit “CellTiter 96R AQuous One Solution Cell Proliferation Assay (MTS)” from Promega™. Following 30 minutes of incubation with the MTS reagent, the endpoint measurements were done in triplicate at 485 nm, using a fluorescence plate reader.

Molecules are shown by their SMILES. Values after ≈ are worked out from the molar mass of the structure shown.

The IC50 is the point on the concentration scale where inhibition reaches its midpoint. Higher therefore signals a need for much substance. Usually MIC50 stands for an inhibitory concentration at the 50% level, which refers to growth in some studies and to a panel of isolates in others. A low value points to greater potency. By MIC90 is commonly meant the lowest concentration that inhibits either 90% of growth or 90% of the strains tested, depending on the study. Low values mean higher susceptibility, high ones lower susceptibility. In general, viability refers to a read-out of living cells in per cent, often relative to untreated cells.

Take `CCCOc1c2cccc1Cc1cccc(c1OCc1nccn1C)Cc1cccc(c1OCCC)Cc1cccc(c1OCc1nccn1C)C2` [(2)]: the “F/F0 (fluorescence intensity of BCS)” value in [1] is 0.55. The “proliferation index Nt/N0 (FIG. 2)” value in test [2] is recorded as “clearly inhibits the proliferation”. The “proliferation index Nt/N0 (FIG. 3)” value in test [3] was “clearly inhibits the proliferation”. Besides, the IC50 worked out at 1.84 µM in [4], 1.56 µM in [5] and 2.06 µM in test [6]. Moreover, the MIC50 in test [7], in test [8], in test [9] and in test [10] was 0.8 µM (≈ 0.558 µg/mL) in each case. Besides, the MIC90 is 1.6 µM (≈ 1.12 µg/mL) in test [7], 1.6 µM (≈ 1.12 µg/mL) in [8], 0.8 µM (≈ 0.558 µg/mL) in [9] and 1.6 µM (≈ 1.12 µg/mL) in test [10]. For the same compound, in test [11], the MIC was found to be 0.8 µM. In addition, the viability at 0.1 µM in test [12] was found to be 99.9%. Besides, the viability at 0.5 µM in test [12] came to 93.1%. In test [12], the viability at 1 µM is 75.8%. Moreover, the viability at 1.5 µM in test [12] was 24.4%.

The record behind these values is patent US20260015339A1, “CALIX[4]ARENES WITH HIGH ANTICANCER ACTIVITY” (UNIVERSITE GRENOBLE ALPES, priority 2023, published 2026).
